Laboratory results taken from patent US20150322051A1, “Macrocyclic picolinamides as fungicides” (Dow AgroSciences LLC, priority 2014, published 2015).
Like-named read-outs stand apart in the source and are kept apart here.

Tests used:
[1] = tested on: Phakopsora pachyrhizi (PHAKPA); assay: Asian soybean rust (PHAKPA) whole-plant fungicidal test
[2] = tested on: Leptosphaeria nodorum (LEPTNO); assay: Wheat glume blotch (LEPTNO) whole-plant fungicidal test; type: in vivo; conditions: 1 Day Protectant
[3] = tested on: Mycosphaerella graminicola; anamorph: Septoria tritici (SEPTTR); assay: Leaf blotch of wheat (SEPTTR) whole-plant fungicidal test; type: in vivo; conditions: Zymoseptoria tritici, topical, low volume (track spray) application, 121.5 g/H
[4] = tested on: Alternaria solani (ALTESO); assay: Tomato early blight (ALTESO) whole-plant fungicidal test; type: in vivo; conditions: 1 Day Protectant
Experimental: (§1) All fungicides were evaluated using the aforementioned method for their activity vs. all target diseases, unless stated otherwise. Wheat leaf blotch and brown rust activity were also evaluated using track spray applications, in which case the fungicides were formulated as EC formulations, containing 0.1% Trycol 5941 in the spray solutions. Wheat plants (variety Yuma) were grown from seed in a greenhouse in 50% mineral soil/50% soil-less Metro mix until the first leaf was fully emerged, with 7-10 seedlings per pot. These plants were inoculated with an aqueous spore suspension of Septoria tritici either prior to or after fungicide treatments. After inoculation the plants were kept in 100% relative humidity (one day in a dark dew chamber followed by two to three days in a lighted dew chamber at 20° C.) to permit spores to germinate and infect the leaf. The plants were then transferred to a greenhouse set at 20° C. for disease to develop. When disease symptoms were fully expressed on the 1st leaves of untreated plants, infection levels were assessed on a scale of 0 to 100 percent disease severity. Percent disease control was calculated using the ratio of disease severity on treated plants relative to untreated plants. Tomato plants (variety Outdoor Girl) were propagated in soil-less Metro mix, with each pot having one plant, and used when 12 to 14 days old. […]

[5] = tested on: Cercospora beticola (CERCBE); assay: Leaf spot of sugar beets (CERCBE) whole-plant fungicidal test; type: in vivo; conditions: sugar beet, 1 Day Protectant
Experimental: as §1, with “Sugar beet” for “Tomato”, “HH88)” for “Outdoor Girl)”, “grown” for “propagated”, “mix” for “mix, with each pot having one plant,”, “trimmed regularly” for “used when 12”, “maintain a uniform plant size prior to test.” for “14 days old.”

CCCC[C@@H]1[C@@H](Cc2ccc(C(F)(F)F)cc2)CCC[C@H](NC(=O)c2nccc(OC)c2OCOC(C)=O)C(=O)O[C@H]1C [Compound 3]
Disease Control at 25 ppm PHAKPA 1DP ([1]; 1 Day Protectant): B (≦70) | Disease Control at 25 ppm PHAKPA 3DC ([1]; 3 Day Curative): B (≦70) | Disease Control at 100 ppm LEPTNO 1DP [2]: A (>70) | pest or weed control at 121.5 g/ha ([3]; 24 h, 1 Day Protectant, read-out: Low Volume activity at 121.5 g/H SEPTTR 1DP (% disease control rating)): > 70% | pest or weed control at 121.5 g/ha ([3]; 72 h, 3 Day Curative, read-out: Low Volume activity at 121.5 g/H SEPTTR 3DC (% disease control rating)): > 70% | Disease Control at 100 ppm ALTESO 1DP [4]: A (>70) | Disease Control at 100 ppm CERCBE 1DP [5]: B (≦70)
